This is an account of results in patent publication US20120094939A1, “ANTI-VIRAL COMPOUNDS, COMPOSITIONS AND METHODS” (priority 2007, published 2012).

The assay relates to OR6 cells harboring full-length genotype 1b HCV replicon ORN/C-5B/KE (HCV RNA replication). The assay can be described thus: microbe, parasite or virus in culture. The assay is classed as cell-based, Hepatitis C virus (strain HCV—O. The settings on record: 48 hours; for antiviral activity (in words): OR6 full-length replicon. An excerpt:
HCV Replicon System-Secondary Assays. For validation, OR6 cells stably harboring the full-length genotype 1 replicon, ORN/C-5B/KE9 were used to examine compound activity in a more authentic viral polyprotein context. This replicon was derived from the 1B-2 strain (strain HCV—O, genotype 1b), in which the Renilla luciferase gene is introduced as a fusion protein with neomycin to facilitate the monitoring of HCV replication. This construct contains a tissue culture adaptive mutation in the NS3 region. Cells were cultured in an identical manner to the Huh7/Rep-Feo cells.
Secondary Assays-Hit Validation. Several hits from primary HTS, as well as functionally related compounds, were purchased from Sigma (St. Louis, Mo.), Calbiochem (San Diego, Calif.), and Microsource (Gaylordsville, Conn.). […] Ten mM of stock solutions of the individual compounds to be tested was prepared in the appropriate solvent (DMSO, ethanol, or H2O, according to the manufacturer's information) and stored at −20° C. Cells were seeded into 96-well plates at a density of 2000 cells/well in 100 μL of medium. The cells were incubated for 24 hours at 37° C. to obtain the optimal level of adherence. Solutions of candidate hit compounds were added to wells to achieve final concentrations of 0.1, 1, 10, 50, and 100 μM. The final concentration of DMSO or ethanol in every well was 1% or less by volume. Mock solutions were used as a negative control. PEG-IFN and ribavirin were used as positive controls at various concentrations, alone and in combination. The plates were then incubated at 37° C. with 5% CO2 for 48 hours before they were analyzed. Luminescent signal was generated using the Renilla luciferase assay kit (Promega) according to the manufacturer's instructions. Signal was then detected using a LumiCount (Packard BioScience Company) luminometer. Cell viability was assessed using CellTiter-Glo (Promega), following the manufacturer's instructions. All experiments were performed in triplicate.
Secondary Assays-Data Analysis. Values were presented as a percentage of mock treated control, which was arbitrarily set at 100%. Data were expressed as the mean (±) SD. […] Synergy calculations were performed using CalcuSyn (Biosoft; Cambridge, England).
HCV Replicon System—Secondary Assays: For replicon validation, OR6 cells stably harboring the full-length genotype 1 replicon, ORN/C-5B/KE were used (Burke J. Am. Chem. Soc. (2004) 126:14095-14104). This replicon was derived from the 1B-2 strain (strain HCV—O, genotype 1b), in which the Renilla luciferase gene is introduced as a fusion protein with the Neomycin resistance cassette to facilitate the monitoring of HCV replication. This construct contains a tissue culture adaptive mutation in the NS3 region. Cells were cultured in an identical manner to the Huh7/Rep-Feo cells.
Secondary Assays—Hit Validation: 10 mM of stock solutions of the individual compounds to be tested were prepared in DMSO and stored at −20° C. Cells were seeded into 96-well plates at a density of 2,000 cells/well in 100 μl of medium. The cells were incubated for 24 hours at 37° C. to obtain the optimal level of adherence. Solutions of candidate hit compounds were added to wells to achieve varying final concentrations between 0.01 and 100 μM. The final concentration of DMSO or ethanol in every well was 1% or less by volume. Mock solutions were used as a negative control. Peginterferon-alfa-2b (PEG-Intron; Schering Corp.; Kenilworth, N.J.) and ribavirin (Sigma; St. Louis, Mo.) were used as positive controls at various concentrations, alone and in combination. The plates were then incubated at 37° C. with 5% CO2 for 48 hours before they were analyzed. Luminescent signal was generated using the Renilla luciferase assay kit (Promega; Madison, Wis.) according to the manufacturer's instructions. Signal was then detected using a LumiCount™ (Packard BioScience Company; Downers Grove, Ill.) luminometer.
(In general: Replicon systems follow genome replication, usually without infectious particles.)

The mark [1] stands for this setting: Hepatitis C virus, OR6, 48 h, read-out: IC50 (HCV RNA replication, luciferase), OR6 full-length genotype 1b replicon.

As a reminder, the IC50 is the point on the concentration scale where inhibition reaches its midpoint.

Where two headings read alike, the source gives them in different places.

As to `CC(=O)OC[C@H]1O[C@H](CCO/N=C2/[C@H]3CCn4c(=O)n(-c5ccccc5)c(=O)n4[C@H]3[C@H](O)[C@@H]3O[C@H]23)C=C[C@@H]1OC(C)=O` [BUCMLD-B10A3], the IC50 runs as follows: under setting [1], over 500 nM; (read-out: IC50 (HCV RNA replication, luciferase), OR6 full-length genotype 1b replicon) under 1000 nM.

With `Cc1cc2c(nc1C)CCCN2CC(C)O/N=C1/[C@H]2CCn3c(=O)n(-c4ccccc4)c(=O)n3[C@H]2[C@H](O)[C@@H]2O[C@H]12` (some centres unmarked) [BUCMLD-B10A5], the IC50 under setting [1] is about 1000 nM.

Consider `Cc1cc(C)c(-c2cc([C@H](C)O/N=C3/[C@H]4CCn5c(=O)n(-c6ccccc6)c(=O)n5[C@H]4[C@H](O)[C@@H]4O[C@H]34)on2)c(C)c1` [BUCMLD-B10A11], for which the IC50 under setting [1] is under 500 nM.

For the molecule `O=C1C2C=C(I)C(CC2OCCCCO)[C@@]12CO2` (some centres unmarked) [SM_A5B3_2P141], the “antiviral activity (in words)” value is listed as “modest antiviral activity”. Further, under setting [1], the IC50 fell in the range of 10000 to 50000 nM.

With `O=C1C2(CO)C=C(Br)C(CC2c2ccccc2)[C@@]12CO2` (some centres unmarked) [SM_A6B5_2P100], the IC50 under setting [1] was about 7000 nM.

In the case of `COc1cc2c(cc1OC)-c1c/c(=N\c3c(C)cc(C)cc3C)n(C)c(=O)n1CC2` [trequinsin, reference compound], the “antiviral activity (in words)” value is “antiviral activity at the lower concentrations of 1 and 10 μM”.
